Source: ChEMBL document CHEMBL1142788, “Synthesis and antibacterial activity of alkyl derivatives of the glycopeptide antibiotic A40926 and their amides” (2005)
Values after ≈ are worked out from the molar mass of the structure shown.

Legend:
[1] = system: Staphylococcus aureus; assay: Minimum inhibitory concentration against methicillin-resistant Staphylococcus aureus
[2] = system: Enterococcus faecium; assay: Minimum inhibitory concentration against vancomycin-A Enterococcus faecium in the presence of 30% bovine serum (n=1) (range = 4>128mg/L); assay type: functional
[3] = system: Enterococcus faecalis; assay: Minimum inhibitory concentration against vancomycin-A Enterococcus faecalis in the presence of 30% bovine serum (n=4) (range = 1-16mg/L); assay type: functional
[4] = system: Staphylococcus haemolyticus; assay: Minimum inhibitory concentration against Staphylococcus haemolyticus in the presence of 30% bovine serum; assay type: functional
[5] = system: Enterococcus faecalis; assay: Minimum inhibitory concentration against vancomycin-sensitive Enterococcus faecalis in the presence of 30% bovine serum (n=3) (range = 0.25-0.5mg/l); assay type: functional
[6] = system: Staphylococcus aureus; assay: Minimum inhibitory concentration against methicillin-sensitive Staphylococcus aureus
[7] = system: Staphylococcus epidermidis; assay: Minimum inhibitory concentration against methicillin-resistant Staphylococcus epidermidis in the presence of 30% bovine serum; assay type: functional
[8] = system: Staphylococcus epidermidis; assay: Minimum inhibitory concentration against methicillin-sensitive Staphylococcus epidermidis in the presence of 30% bovine serum; assay type: functional
[9] = system: Enterococcus faecium; assay: Minimum inhibitory concentration against vancomycin-sensitive Enterococcus faecium in the presence of 30% bovine serum(n=1); assay type: functional
[10] = system: Enterococcus faecium; assay: Minimum inhibitory concentration against vancomycin-A Enterococcus faecium in the presence of 30% bovine serum (n=1) (range = 2-32mg/l); assay type: functional
[11] = system: Enterococcus faecalis; assay: Minimum inhibitory concentration against vancomycin-A Enterococcus faecalis in the presence of 30% bovine serum(n=4) (range = 1-16mg/L); assay type: functional
[12] = system: Enterococcus faecalis; assay: Minimum inhibitory concentration against vancomycin-sensitive Enterococcus faecalis in the presence of 30% bovine serum (n=3); assay type: functional
[13] = system: Enterococcus faecalis; assay: Minimum inhibitory concentration against vancomycin-A Enterococcus faecalis in the presence of 30% bovine serum (n=4); assay type: functional
[14] = system: Staphylococcus aureus; assay: Minimum inhibitory concentration against methicillin-sensitive Staphylococcus aureus without serum
[15] = system: Enterococcus faecium; assay: Minimum inhibitory concentration against vancomycin-A Enterococcus faecium in the presence of 30% bovine serum (n=1) (range = 2>128mg/l); assay type: functional
[16] = system: Enterococcus faecalis; assay: Minimum inhibitory concentration against vancomycin-sensitive Enterococcus faecalis in the presence of 30% bovine serum(n=3) (range = 0.25-1mg/l); assay type: functional
[17] = system: Enterococcus faecium; assay: Minimum inhibitory concentration against vancomycin-A Enterococcus faecium in the presence of 30% bovine serum (n=1) (range = 0.25-32mg/l); assay type: functional
[18] = system: Enterococcus faecalis; assay: Minimum inhibitory concentration against vancomycin-A Enterococcus faecalis in the presence of 30% bovine serum(n=4) (range = 0.5-64mg/L); assay type: functional
[19] = system: Enterococcus faecalis; assay: Minimum inhibitory concentration against vancomycin-sensitive Enterococcus faecalis in the presence of 30% bovine serum (n=3) (range = <0.125-0.25mg/l); assay type: functional
[20] = system: Enterococcus faecium; assay: Minimum inhibitory concentration against vancomycin-A Enterococcus faecium in the presence of 30% bovine serum (n=1) (range = 4-8mg/L); assay type: functional

| Compound | MIC [1] | MIC [2] | MIC [3] | MIC [4] | MIC [5] | MIC [6] | MIC [7] | MIC [8] | MIC [9] | MIC [10] | MIC [11] | MIC [12] | MIC [13] | MIC [14] | MIC [15] | MIC [16] | MIC [17] | MIC [18] | MIC [19] | MIC [20] |
| --- | --- | --- | --- | --- | --- | --- | --- | --- | --- | --- | --- | --- | --- | --- | --- | --- | --- | --- | --- | --- |
| CN(Cc1ccc(-c2ccccc2)cc1)[C@H]1C(=O)N[C@@H]2Cc3ccc(cc3)Oc3cc4cc(c3O[C@@H]3OC(C(=O)O)C(O)[C@H](O)C3NCc3ccc(-c5ccccc5)cc3)Oc3ccc(cc3Cl)[C@@H](O)C3NC(=O)[C@H](NC(=O)[C@@H]4NC(=O)[C@@H](NC2=O)c2cc(cc(O)c2Cl)Oc2cc1ccc2O)c1ccc(O)c(c1)-c1c(O[C@H]2O[C@H](CO)[C@@H](O)[C@H](O)[C@@H]2O)cc(O)cc1[C@@H](C(=O)O)NC3=O (stereo partly drawn) | 0.5 µg/mL (≈ 0.266 µM) | > 128 µg/mL | 16 µg/mL | 64 µg/mL | 0.5 µg/mL | 0.5 µg/mL (≈ 0.266 µM) | 4 µg/mL | 0.5 µg/mL | 0.5 µg/mL |  |  |  |  |  |  |  |  |  |  |  |
| CN(C)CCCNC(=O)C1O[C@@H](Oc2c3cc4cc2Oc2ccc(cc2Cl)[C@@H](O)C2NC(=O)[C@H](NC(=O)[C@@H]4NC(=O)[C@H]4NC(=O)[C@@H](Cc5ccc(cc5)O3)NC(=O)[C@H](N(C)Cc3ccc(-c5ccccc5)cc3)c3ccc(O)c(c3)Oc3cc(O)c(Cl)c4c3)c3ccc(O)c(c3)-c3c(O[C@H]4O[C@H](CO)[C@@H](O)[C@H](O)[C@@H]4O)cc(O)cc3[C@@H](C(=O)NCCCN(C)C)NC2=O)C(NCc2ccc(-c3ccccc3)cc2)[C@@H](O)C1O (stereo partly drawn) | 1 µg/mL (≈ 0.488 µM) |  |  | 2 µg/mL |  | 1 µg/mL (≈ 0.488 µM) | 1 µg/mL | 0.25 µg/mL | 0.5 µg/mL | 32 µg/mL | 4 µg/mL | 0.25 µg/mL |  |  |  |  |  |  |  |  |
| CN(Cc1ccc(C(=O)Oc2ccccc2)cc1)[C@H]1C(=O)N[C@@H]2Cc3ccc(cc3)Oc3cc4cc(c3O[C@@H]3OC(C(=O)O)C(O)[C@H](O)C3NCc3ccc(C(=O)Oc5ccccc5)cc3)Oc3ccc(cc3Cl)[C@@H](O)C3NC(=O)[C@H](NC(=O)[C@@H]4NC(=O)[C@@H](NC2=O)c2cc(cc(O)c2Cl)Oc2cc1ccc2O)c1ccc(O)c(c1)-c1c(O[C@H]2O[C@H](CO)[C@@H](O)[C@H](O)[C@@H]2O)cc(O)cc1[C@@H](C(=O)O)NC3=O (stereo partly drawn) | 2 µg/mL (≈ 1.01 µM) |  |  | 64 µg/mL |  |  | 16 µg/mL | 4 µg/mL | 1 µg/mL |  |  |  | 4 µg/mL | 2 µg/mL (≈ 1.01 µM) | > 128 µg/mL | 1 µg/mL |  |  |  |  |
| CN(C)CCCNC(=O)C1O[C@@H](Oc2c3cc4cc2Oc2ccc(cc2Cl)[C@@H](O)C2NC(=O)[C@H](NC(=O)[C@@H]4NC(=O)[C@H]4NC(=O)[C@@H](Cc5ccc(cc5)O3)NC(=O)[C@H](N(C)Cc3ccc5ccccc5c3)c3ccc(O)c(c3)Oc3cc(O)c(Cl)c4c3)c3ccc(O)c(c3)-c3c(O[C@H]4O[C@H](CO)[C@@H](O)[C@H](O)[C@@H]4O)cc(O)cc3[C@@H](C(=O)NCCCN(C)C)NC2=O)C(NCc2ccc3ccccc3c2)[C@@H](O)C1O (stereo partly drawn) | 2 µg/mL (≈ 1 µM) |  |  | 1 µg/mL |  | 1 µg/mL (≈ 0.5 µM) | 2 µg/mL | < 0.125 µg/mL | 0.25 µg/mL |  |  |  |  |  |  |  | > 32 µg/mL | 64 µg/mL | < 0.25 µg/mL |  |
| CCCCCCCCCCc1ccc(CNC2[C@H](Oc3c4cc5cc3Oc3ccc(cc3Cl)[C@@H](O)C3NC(=O)[C@H](NC(=O)[C@@H]5NC(=O)[C@H]5NC(=O)[C@@H](Cc6ccc(cc6)O4)NC(=O)[C@H](NC)c4ccc(O)c(c4)Oc4cc(O)c(Cl)c5c4)c4ccc(O)c(c4)-c4c(O[C@H]5O[C@H](CO)[C@@H](O)[C@H](O)[C@@H]5O)cc(O)cc4[C@@H](C(=O)NCCCN(C)C)NC3=O)OC(C(=O)NCCCN(C)C)C(O)[C@@H]2O)cc1 (stereo partly drawn) | 2 µg/mL (≈ 1.03 µM) |  |  | 2 µg/mL |  |  |  | 1 µg/mL | 0.25 µg/mL |  |  | 0.25 µg/mL | 4 µg/mL |  |  |  |  |  |  | 8 µg/mL |
